{"source": "patent US8420852B2", "about": "“Phospholipase A2 inhibitors and their use in treating neurological injury and disease” (The Regents of the University of California, priority 2007, dated 2013)", "key": {"human cPLA2 (GIVA)": {"target": "T1, human cPLA2 (GIVA) (Homo sapiens, UniProt P47712)", "T1 sequence (P47712 1-749)": "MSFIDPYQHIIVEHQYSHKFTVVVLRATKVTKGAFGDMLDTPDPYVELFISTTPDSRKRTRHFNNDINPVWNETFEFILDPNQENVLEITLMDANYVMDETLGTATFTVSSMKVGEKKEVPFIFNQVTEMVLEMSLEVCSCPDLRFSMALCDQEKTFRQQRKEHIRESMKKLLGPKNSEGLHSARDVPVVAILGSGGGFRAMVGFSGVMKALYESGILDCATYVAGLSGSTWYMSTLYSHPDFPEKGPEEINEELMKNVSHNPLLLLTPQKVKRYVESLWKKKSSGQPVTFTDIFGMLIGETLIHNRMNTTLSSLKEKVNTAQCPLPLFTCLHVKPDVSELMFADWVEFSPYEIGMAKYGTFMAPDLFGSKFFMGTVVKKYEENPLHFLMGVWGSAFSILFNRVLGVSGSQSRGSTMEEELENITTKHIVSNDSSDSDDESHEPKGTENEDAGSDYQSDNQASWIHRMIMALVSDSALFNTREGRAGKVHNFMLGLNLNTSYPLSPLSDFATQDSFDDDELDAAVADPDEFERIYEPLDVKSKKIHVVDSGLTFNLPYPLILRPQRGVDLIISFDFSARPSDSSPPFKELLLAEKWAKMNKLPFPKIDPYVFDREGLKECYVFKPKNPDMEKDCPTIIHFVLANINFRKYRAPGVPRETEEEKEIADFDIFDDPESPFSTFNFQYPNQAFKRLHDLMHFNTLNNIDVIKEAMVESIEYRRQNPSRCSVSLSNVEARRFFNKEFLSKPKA", "assay": "cPLA2 (GIVA) specific mixed micelle assay", "assay_type": "biochemical", "conditions": "at 0.091 mol fraction", "description": "The compounds described herein were tested for inhibition of PLA2s in in vitro assay systems. The data, summarized in the Examples, are represented as XI(50) values unless otherwise noted. XI(50) is defined as the inhibitor concentration that produced 50% inhibition. XI(50) is used as opposed to the more common IC50 because GIVA and GVIA PLA2 are active at a two-dimensional lipid interface rather than in three-dimensional solution. (Deems, Anal. Biochem., 287:1-16, 2000).\nFor the groups that received delayed treatment after symptoms occurred, mice were treated with daily intraperitoneal injections of AX059 starting from the first day of clinical symptoms, beginning on day 11; and AX115 starting from the first day of clinical peak (i.e., score 4), beginning of day 14. All inhibitors were administered for 2 weeks. The selectivity of the compounds for the different PLA2s is shown as the percentage inhibition in Table 1. The XI(50) is the mole fraction of the inhibitor in the total substrate interface required to inhibit the enzyme by 50%.\nCompound AX115 was tested for its ability to inhibit human cPLA2 (GIVA) in a cPLA2 (GIVA) specific assay that uses mixed micelles of the substrate 1-palmitoyl-2-arachidonyl phosphatidylcholine and the detergent Triton X-100 (97:3) containing phosphatidylinositol 4,5-bisphosphate (400 μM) as previously described. […]"}, "[1]": {"tested_on": "BALB/c mice with spinal cord contusion", "assay": "spinal cord contusion (SCI) model, locomotor recovery and histology", "assay_type": "in vivo, mouse"}, "[2]": {"tested_on": "SJL/J mice induced with EAE", "assay": "EAE model of multiple sclerosis, clinical score", "assay_type": "in vivo, mouse"}, "[3]": {"tested_on": "fatty acids attached to phospholipid classes in spinal cord", "assay": "lipid profiling of spinal cords of EAE mice (fatty acid hydrolysis)", "assay_type": "in vivo, mouse", "conditions": "for Treatment: mean ± SD, n=3; for % Difference: treated EAE vs naive", "description": "Spinal cords were removed from vehicle and inhibitor treated animals at the peak stage of disease when the vehicle-treated mice reached the clinical score of 4, and the tissue snap frozen in liquid nitrogen. Lipid profiling was carried out by Lipomics Technology Inc. (West Sacramento, Calif.). The tissues were then extracted for either TrueMass® lipid profiling, or an eicosanoid inflammatory panel analysis. The lipids from the tissues were extracted in the presence of authentic internal standards as previously described (55), using chloroform:methanol (2:1 v/v). Individual lipid classes within each extract were separated by liquid chromatography (Agilent Technologies model 1100 Series). Each lipid class was trans-esterified in 1% sulfuric acid in methanol in a sealed vial under a nitrogen atmosphere at 100° C. for 45 min. The resulting fatty acid methyl esters were extracted from the mixture with hexane containing 0.05% butylated hydroxytoluene and prepared for gas chromatography by sealing the hexane extracts under nitrogen. Fatty acid methyl esters were separated and quantified by capillary gas chromatography (Agilent Technologies model 6890) equipped with a 30 m DB-88MS capillary column (Agilent Technologies) and a flame-ionization detector. Lipomic Surveyor® software was used to visualize changes within the treated groups. Experiments were repeated with 3 different samples (n=3), and all the detection and analysis was done blind.\nAs PLA2s hydrolyze fatty acids from the sn-2 position of phospholipids, a comprehensive profiling was carried out of 40 fatty acids (FAs) that are attached to 5 phospholipid classes in extracts of spinal cords of naive mice, EAE mice treated with vehicle, and PLA2 inhibitor-treated EAE mice. […] These tissues were taken from the same groups of mice used for the chemokine/cytokine assay described above."}}, "note": "Entries after “also recorded” stand apart in the source; their conditions may differ.", "data": [{"smiles": "CCCCCCCCCCCCCCC(=O)C(=O)NCC(=O)OC", "note": "[AX115]", "values": [{"measurement": "Inhibition cPLA2 GIVA", "setting": "human cPLA2 (GIVA)", "result": 62, "unit": "%"}, {"measurement": "neuron survival in ventral horn (cresyl violet)", "setting": "[1]; 300 to 1000 μm rostral and caudal to lesion epicenter, 28 dpi, vs vehicle", "result": "significantly greater neuron survival; also recorded: significantly better survival of ventral horn neurons; also recorded: greater number of neuronal profiles"}, {"measurement": "serotonergic innervation", "setting": "[1]; 1000 μm caudal to lesion epicenter, 28 dpi, vs vehicle", "result": "significantly greater serotonergic innervation; also recorded: marked increase of serotonergic fibers"}, {"measurement": "BMS score", "setting": "[1]; 28 days after SCI, vehicle 4.6, 9-point scale", "result": 6.6}, {"measurement": "locomotor function (BMS scores) vs vehicle treated injured mice", "setting": "[1]; daily i.p. 6.85 mg/kg from 1 h after contusion for 14 days, significant from 5 dpi, 6.85 mg/kg", "result": "marked improvement in the BMS scores; also recorded: markedly improved locomotor function"}, {"measurement": "myelin loss (Luxol fast blue)", "setting": "[1]; epicenter and 300 μm rostral and caudal, 28 dpi, vs vehicle", "result": "marked reduction of myelin loss"}, {"measurement": "tissue sparing (GFAP staining)", "setting": "[1]; lesion epicenter and adjacent regions, 28 dpi, vs vehicle", "result": "significant amount of tissue sparing; also recorded: significant tissue protection; also recorded: marked reduction in tissue loss"}, {"measurement": "improvement in BMS subscores (fine locomotor control)", "setting": "[1]; vs vehicle", "result": 4, "unit": "points"}, {"measurement": "increase in the density of 5-HT fibers within the lateral funiculi and ventral horns", "setting": "[1]; vs vehicle", "result": 3, "unit": "fold"}, {"measurement": "mean maximal peak clinical grade at day 17", "setting": "[2]; delayed treatment from peak of first attack, did not differ from vehicle", "result": "~3"}, {"measurement": "clinical score on day 35", "setting": "[2]; delayed treatment from peak of first attack, vehicle 2.3", "result": 2.8}, {"measurement": "clinical score on day 23", "setting": "[2]; delayed treatment from peak of first attack, vehicle about 1.4", "result": 2.5}, {"measurement": "clinical course of EAE vs vehicle control", "setting": "[2]; delayed treatment from peak of first clinical attack (day 14), daily i.p.", "result": "prevents remission of the disease; also recorded: remission was prevented; also recorded: worsened the disease"}, {"measurement": "clinical course of EAE vs vehicle control", "setting": "[2]; treatment before onset of symptoms, from day 5/6 after immunization, daily for 3 weeks", "result": "no statistical significance; also recorded: did not differ from vehicle treated control mice; also recorded: did not substantially differ from vehicle treated controls"}, {"measurement": "Treatment", "setting": "[3]; Cardiolipin - arachidic, naive 464.0 ± 69.4", "result": "324.4 ± 27.5", "unit": "nmol"}, {"measurement": "% Difference", "setting": "[3]; Cardiolipin - arachidic", "result": 30.1, "unit": "%"}, {"measurement": "Treatment", "setting": "[3]; Cardiolipin - eicosapentaenoic, naive 16.1 ± 4.8", "result": "3.2 ± 5.5", "unit": "nmol"}, {"measurement": "% Difference", "setting": "[3]; Cardiolipin - eicosapentaenoic", "result": 80.3, "unit": "%"}, {"measurement": "Treatment", "setting": "[3]; Phosphatidylcholine - arachidic, naive 347.9 ± 20.1", "result": "269.4 ± 24.9", "unit": "nmol"}, {"measurement": "% Difference", "setting": "[3]; Phosphatidylcholine - arachidic", "result": 22.5, "unit": "%"}, {"measurement": "Treatment", "setting": "[3]; Phosphatidylcholine - eicosenoic, naive 1666.2 ± 46.4", "result": "1393.4 ± 52.5", "unit": "nmol"}, {"measurement": "% Difference", "setting": "[3]; Phosphatidylcholine - eicosenoic", "result": 16.4, "unit": "%"}, {"measurement": "% Difference", "setting": "[3]; Phosphatidylcholine - erucic", "result": 22.4, "unit": "%"}, {"measurement": "Treatment", "setting": "[3]; Phosphatidylserine - tetracosahexanoic, naive 9.7 ± 0.8", "result": "6.4 ± 0.6", "unit": "nmol"}, {"measurement": "% Difference", "setting": "[3]; Phosphatidylserine - tetracosahexanoic", "result": 33.8, "unit": "%"}, {"measurement": "Treatment", "setting": "[3]; Phosphatidylserine-1-enyl-octadecenoic, naive 217.4 ± 37.9", "result": "133.3 ± 32.5", "unit": "nmol"}, {"measurement": "% Difference", "setting": "[3]; Phosphatidylserine-1-enyl-octadecenoic", "result": 38.7, "unit": "%"}]}]}
